From US20130287688A1, “NOVEL COMPOSITIONS AND USES OF ANTI-HYPERTENSION AGENTS FOR CANCER THERAPY” (XTUIT PHARMACEUTICALS, INC., priority 2010, published 2013)

Key:
[1] = tested on: carcinoma associated fibroblasts (CAFs); settings: losartan 10 μmol/L, 24 hrs
Protocol: Protein assays were done with commercial ELISA kits.
CAFs were plated in 24 well plates at a concentration of 500K cells/well. […] Treatment was done in low serum to reduce background collagen levels. Conditioned medium was collected at the end of the 24-hr treatment period and analyzed for collagen levels.
Collagen I measurements were done with a type I C-terminal collagen propetide Enzyme Linked Immunosorbent Assay (ELISA) kit (Quidel, San Diego, Calif.) and the Sircol soluble collagen assay (Biocolor Ltd., United Kingdom). TGF-β1 assays were performed with a human TGF-β1 ELISA kit (R&D Systems, Minneapolis, Minn.). The assay only measures the free-form of mature TGF-β1. To measure total levels of TGF-β1 the latent form of TGF-β1 was activated with 1N HCl.

[2] = tested on: E0771 breast tumors; experiment: Tumor matrix level histology (collagen I); set-up: species or system SCID mouse; settings: mouse, in vivo
Protocol: Collagen levels were used as a metric of matrix production as described in Diop-Frimpong et al., Proc Nall Acad Sci USA. […] Next, solid stress in these tumors was measured using recently established technique described in Stylianopoulos T, et al., Growth-induced mechanical stress in murine and human tumors: causes, consequences and remedies. under review.
Vessel perfusion, matrix level, and hypoxia histology: For breast tumors, mice bearing orthotopic E0771 were split into treatment groups, time-matched for time after implantation and size-matched for tumor volume at this time (−100 mm^3). For pancreatic tumors, mice bearing orthotopic AK4.4 were split into treatment groups, size-matched for tumor volume (˜22 mm^3), 6 days after implantation. […] On the day of the last treatment, mice were slowly (−2 min) injected with 100 μL of 1 mg/mL biotinylated lectin (Vector Labs), administered retro-orbitally 5 min prior to tumor removal. For hypoxia studies, the mice were also injected with 60 mg/kg of 10 mg/mL pimonidazole 1 hr prior to tumor removal. […] For matrix staining, collagen I was detected using the LF-67 antibody provided by Dr. Larry Fisher (National Institute of Dental Research, Bethesda, Md.).
Histological image analysis: Eight random images (four interior, four periphery) at 20× magnification were taken from each slide using a confocal microscope (Olympus). […] For perfusion, the number of vessels counted by this program with colocalization of lectin and CD31 staining was divided by the number of vessels counted with CD31 staining. For vessel metrics, including diameter and density, the program determined the average size of all counted vessels and their length, as well as the count per area Images of collagen I stained sections were analyzed based on the area fraction of positive staining and on the average staining intensity (concentration) in each image. […] Images of hypoxia staining with pimonidazole were similarly analyzed for the area fraction of positive staining, counting the fraction of pixels above a threshold based on background intensity.

[3] = tested on: HSTS26T tumors; experiment: Protein levels in homogenized tumors (ELISA); assay type: in vivo, mice
Excerpt: Tumors were excised after two weeks of treatment, homogenized and analyzed for total and activated TGF-β1 levels by ELISA.

[4] = tested on: HSTS26T tumors; experiment: Vascular density in tumors; settings: in vivo
[5] = tested on: 4T1 breast tumors; experiment: Solid stress (tumor opening technique); set-up: species or system mice; settings: mouse, in vivo
Excerpt: FIG. 25 is a bar graph showing that angiotensin inhibitors decrease stress in multiple tumor models. Solid stress levels in tumors after angiotensin inhibition using losartan are shown. […] Animal numbers n=10-11 (4T1 stress), n=4-8 (Pan-02 stress).
The mechanism responsible for the increase in tumor vessel perfusion by losartan was investigated. Desmoplasia, high stromal cell and matrix density, is a major contributor to the solid stress accumulation that compresses vessels (Stylianopoulos T, et al., Growth-induced mechanical stress in murine and human tumors: causes, consequences and remedies. under review. 2012). […] Moreover, losartan decreased collagen I concentration, measured based on staining intensity, in E0771 and AK4.4 tumors (FIGS. 24B-24C). […] Next, solid stress in these tumors was measured using recently established technique described in Stylianopoulos T, et al., Growth-induced mechanical stress in murine and human tumors: causes, consequences and remedies. under review. […]
Solid stress: Solid stress was measured using the tumor opening technique as described previously (Stylianopoulos T, et al., Growth-induced mechanical stress in murine and human tumors: causes, consequences and remedies. under review. 2012). […] Subsequently, each tumor was excised, washed with Hanks' Balanced Salt Solution (HBSS) and its three dimensions were measured. […]

[6] = 15 mg/kg/day in drinking water, two weeks

With `CCCCc1nc(Cl)c(CO)n1Cc1ccc(-c2ccccc2-c2nn[nH]n2)cc1` [losartan] the “decrease in collagen I levels” value [1] was 27%, the “reduction of active-TGF-β1 levels” value [1] was 90% and the “total TGF-β1 levels” value [1] was “unaffected”. The “concentration of collagen I (staining intensity)” value [2] was “reduces”, the “matrix production, collagen I area fraction” value [2] was “decreases” and the “reduction in TSP-1” value [3, 6] was 3.5 fold. The “reduction in active TGF-β1” value [3, 6] was 4 fold, the “reduction in collagen 1” value [3, 6] was “two fold reduction” and the “total TGF-β1 levels” value ([3]; homogenized tumors) was “did not affect”. The “tumor growth or vascular density” value [4] was “did not affect” and the solid stress [5] was “reduces solid stress”.
